Laboratory results from patent publication US9434711B2 (Janssen Pharmaceutica, NV, priority 2007, dated 2016).

Target: canine TRPM8 (Canis lupus familiaris, UniProt Q1A7N1)
Experiment: In Vitro Canine TRPM8 Functional Assay (Ca2+ fluorescence, icilin activation)
Format: cell-based
Settings: for IC50: HEK293 cells stably expressing canine TRPM8, icilin activation, eight-point dose-response, read-out: IC50; for inhibition at 0.5 µM: compound at 0.5 μM, read-out: % Inh @ 0.5; for inhibition at 0.5 µM / inhibition at 0.2 µM: canine TRPM8, icilin activation; for inhibition at 0.2 µM: compound at 0.2 μM, read-out: % Inh @ 0.2
Method in brief: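 HEK293 cells stably expressing canine TRPM8 were loaded with Calcium 3 dye (35 min at 37 °C, then 25 min at room temperature). Compound was added and Ca2+ fluorescence was read for 5 min before icilin at a concentration giving about 80% maximal response. EC50/IC50 came from eight-point dose-response curves, quadruplicate wells.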

Chain of canine TRPM8 (Q1A7N1 1-1104): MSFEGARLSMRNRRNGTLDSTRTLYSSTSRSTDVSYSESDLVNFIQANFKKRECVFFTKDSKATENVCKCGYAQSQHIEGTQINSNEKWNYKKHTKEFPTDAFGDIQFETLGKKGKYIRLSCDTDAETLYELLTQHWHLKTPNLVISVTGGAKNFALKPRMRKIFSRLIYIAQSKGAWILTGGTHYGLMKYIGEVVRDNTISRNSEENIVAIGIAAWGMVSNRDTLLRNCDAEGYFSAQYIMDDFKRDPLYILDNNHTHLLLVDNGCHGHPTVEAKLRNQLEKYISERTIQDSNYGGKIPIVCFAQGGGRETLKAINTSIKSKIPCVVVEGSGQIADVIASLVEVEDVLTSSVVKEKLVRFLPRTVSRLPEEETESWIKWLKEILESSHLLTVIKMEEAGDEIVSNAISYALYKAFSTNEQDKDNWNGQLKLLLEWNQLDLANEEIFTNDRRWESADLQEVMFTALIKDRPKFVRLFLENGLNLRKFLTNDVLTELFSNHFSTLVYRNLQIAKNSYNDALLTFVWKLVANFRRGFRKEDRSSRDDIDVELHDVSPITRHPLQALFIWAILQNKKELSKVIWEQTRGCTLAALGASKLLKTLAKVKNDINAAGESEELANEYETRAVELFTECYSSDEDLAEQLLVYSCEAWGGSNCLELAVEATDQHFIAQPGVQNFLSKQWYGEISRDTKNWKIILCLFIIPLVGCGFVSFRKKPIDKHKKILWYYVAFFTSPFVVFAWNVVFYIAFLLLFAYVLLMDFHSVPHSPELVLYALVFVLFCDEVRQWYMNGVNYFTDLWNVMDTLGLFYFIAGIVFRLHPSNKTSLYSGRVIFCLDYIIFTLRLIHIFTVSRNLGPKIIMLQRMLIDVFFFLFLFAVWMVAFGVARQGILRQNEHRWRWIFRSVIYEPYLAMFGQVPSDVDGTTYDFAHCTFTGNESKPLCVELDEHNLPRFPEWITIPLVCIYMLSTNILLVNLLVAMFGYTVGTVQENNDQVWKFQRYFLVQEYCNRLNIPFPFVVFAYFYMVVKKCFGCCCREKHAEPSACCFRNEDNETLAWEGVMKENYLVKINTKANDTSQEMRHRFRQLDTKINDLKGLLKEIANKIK

IC50 | inhibition at 0.5 µM | inhibition at 0.2 µM | SMILES
170 nM | 94% |  | CN(C)CCN(c1sc2ccccc2c1Cl)S(=O)(=O)c1ccccc1 [Compound 87, N-(3-Chloro-benzo[b]thiophen-2-yl)-N-(2-dimethylamino-ethyl)-benzenesulfonamide]
261 nM | 88% |  | CS(=O)(=O)CCN(c1sc2ccccc2c1Cl)S(=O)(=O)c1ccccc1 [Compound 88, N-(3-Chloro-benzo[b]thiophen-2-yl)-N-(2-methanesulfonyl-ethyl)-benzenesulfonamide]
 | 33% |  | O=C1NCCN1CCN(c1sc2ccccc2c1Cl)S(=O)(=O)c1ccccc1 [Compound 91, N-(3-Chloro-benzo[b]thiophen-2-yl)-N-[2-(2-oxo-imidazolidin-1-yl)-ethyl]-benzenesulfonamide]
68.2 nM |  | 79% | O=S(=O)(c1ccccc1)N(CCN1CCOCC1)c1sc2ccccc2c1Cl [Compound 92, N-(3-Chloro-benzo[b]thiophen-2-yl)-N-(2-morpholin-4-yl-ethyl)-benzenesulfonamide]
11 nM |  | 98% | COC(=O)[C@H](C)CN(c1sc2ccccc2c1C)S(=O)(=O)c1ccccc1 [Compound 93, N-(3-Methyl-benzo[b]thiophen-2-yl)-N-[2(R)-methyl-2-carbomethoxy-ethyl]-benzenesulfonamide]
18 nM |  | 98% | COC(=O)[C@@H](C)CN(c1sc2ccccc2c1C)S(=O)(=O)c1ccccc1 [Compound 94, N-(3-Methyl-benzo[b]thiophen-2-yl)-N-[2(S)-methyl-2-carbomethoxy-ethyl]-benzenesulfonamide]
6 nM |  | 97% | Cc1c(N(CCN2CCOCC2)S(=O)(=O)c2ccccc2)sc2ccccc12 [Compound 95, N-(3-Methyl-benzo[b]thiophen-2-yl)-N-(2-morpholin-4-yl-ethyl)-benzenesulfonamide]
4 nM |  | 98% | Cc1c(N(CCN2CCCCC2)S(=O)(=O)c2ccccc2)sc2ccccc12 [Compound 96, N-(3-Methyl-benzo[b]thiophen-2-yl)-N-(2-piperidin-1-yl-ethyl)-benzenesulfonamide]
14 nM |  | 96% | Cc1c(N(CC2CC2)S(=O)(=O)c2ccccc2)sc2ccccc12 [Compound 97, N-(Cyclopropylmethyl)-N-(3-methyl-benzo[b]thiophen-2-yl)-benzenesulfonamide]
15 nM |  | 97% | CSCCN(c1sc2ccccc2c1C)S(=O)(=O)c1ccccc1 [Compound 98, N-(3-Methyl-benzo[b]thiophen-2-yl)-N-(2-methylsulfanyl-ethyl)-benzenesulfonamide]
18 nM |  | 99% | COCCN(c1sc2ccccc2c1C)S(=O)(=O)c1ccccc1 [Compound 99, N-(2-Methoxy-ethyl)-N-(3-methyl-benzo[b]thiophen-2-yl)-benzenesulfonamide]
30.5 nM |  | 101% | COC(=O)CN(c1sc2ccccc2c1C)S(=O)(=O)c1ccccc1 [Compound 101, N-(3-Methyl-benzo[b]thiophen-2-yl)-N-(carbomethoxy-methyl)-benzenesulfonamide]
40.2 nM |  | 98% | Cc1c(N(CC(F)F)S(=O)(=O)c2ccccc2)sc2ccccc12 [Compound 102, N-(2,2-Difluoro-ethyl)-N-(3-methyl-benzo[b]thiophen-2-yl)-benzenesulfonamide]
8.9 nM |  | 98% | Cc1c(N(CCc2ccccc2)S(=O)(=O)c2ccccc2)sc2ccccc12 [Compound 104, N-(3-Methyl-benzo[b]thiophen-2-yl)-N-(phenethyl)-benzenesulfonamide]
 |  | 71% | CCS(=O)(=O)N(CCSC)c1sc2ccccc2c1C [Compound 108, N-(3-Methyl-benzo[b]thiophen-2-yl)-N-(2-methylsulfanyl-ethyl)-ethanesulfonamide]
 |  | 14% | CCS(=O)(=O)N(C[C@@H]1CCC(=O)N1)c1sc2ccccc2c1C [Compound 109, N-(3-Methyl-benzo[b]thiophen-2-yl)-N-(5-oxo-(S)-pyrrolidin-2-ylmethyl)-ethanesulfonamide]
30.2 nM |  | 95% | CCS(=O)(=O)N(CC1CC1)c1sc2ccccc2c1C [Compound 112, N-(Cyclopropylmethyl)-N-(3-methyl-benzo[b]thiophen-2-yl)-ethanesulfonamide]
79.5 nM | 95% |  | O=S(=O)(c1ccccc1)N(CCc1ccccc1)c1cc2ccccc2s1 [Compound 115, N-(Benzo[b]thiophen-2-yl)-N-(phenethyl)-benzenesulfonamide]
102 nM | 98% |  | C=CCN(c1cc2ccccc2s1)S(=O)(=O)c1ccccc1 [Compound 116, N-(Allyl)-N-(benzo[b]thiophen-2-yl)-benzenesulfonamide]
 | 99% |  | CCCCN(c1cc2ccccc2s1)S(=O)(=O)c1ccccc1 [Compound 117, N-(Benzo[b]thiophen-2-yl)-N-(butyl)-benzenesulfonamide]
48 nM | 100% |  | O=S(=O)(c1ccccc1)N(CC1CCCCC1)c1cc2ccccc2s1 [Compound 118, N-(Benzo[b]thiophen-2-yl)-N-(cyclohexylmethyl)-benzenesulfonamide]
134 nM | 93% |  | O=S(=O)(c1ccccc1)N(c1cc2ccccc2s1)C1CCCCC1 [Compound 119, N-(Benzo[b]thiophen-2-yl)-N-(cyclohexyl)-benzenesulfonamide]
156 nM |  | 75% | CSCCN(c1cc2ccccc2s1)S(=O)(=O)c1ccccc1 [Compound 120, N-(Benzo[b]thiophen-2-yl)-N-(2-methylsulfanyl-ethyl)-benzenesulfonamide]

The remaining lines, values behind:

SMILES | IC50 | inhibition at 0.5 µM | inhibition at 0.2 µM
CC(C)(C)OC(=O)NCCN(c1sc2ccccc2c1Cl)S(=O)(=O)c1ccccc1 [Compound 86, N-(3-Chloro-benzo[b]thiophen-2-yl)-N-[2-(carbo-tert-butoxyamino)ethyl]-benzenesulfonamide] | 53 nM | 101% | 
CC(C)(C)OC(=O)N1CCCC1CN(c1sc2ccccc2c1Cl)S(=O)(=O)c1ccccc1 (stereo not drawn) [Compound 89, N-(3-Chloro-benzo[b]thiophen-2-yl)-N-{[1-(carbo-tert-butoxy)pyrrolidin-2-yl]-methyl}-benzenesulfonamide] |  | 96% | 
CC(C)(C)OC(=O)N1CCC(CN(c2sc3ccccc3c2Cl)S(=O)(=O)c2ccccc2)CC1 [Compound 90, N-(3-Chloro-benzo[b]thiophen-2-yl)-N-{[1-(carbo-tert-butoxy)piperidin-4-yl]-methyl}-benzenesulfonamide] | 21 nM | 99% | 
Cc1c(N(CCOC(C)(C)C)S(=O)(=O)c2ccccc2)sc2ccccc12 [Compound 100, N-(2-tert-Butoxy-ethyl)-N-(3-methyl-benzo[b]thiophen-2-yl)-benzenesulfonamide] | 6.8 nM |  | 103%
Cc1c(N(CC2CCCN2C(=O)OC(C)(C)C)S(=O)(=O)c2ccccc2)sc2ccccc12 (stereo not drawn) [Compound 103, N-(3-Methyl-benzo[b]thiophen-2-yl)-N-{[1-(carbo-tert-butoxy)pyrrolidin-2-yl]-methyl}-benzenesulfonamide] | 90.8 nM |  | 80%
CCS(=O)(=O)N(CCOC)c1sc2ccccc2c1C [Compound 105, N-(2-Methoxy-ethyl)-N-(3-methyl-benzo[b]thiophen-2-yl)-ethanesulfonamide] |  |  | 20%
CCS(=O)(=O)N(CCC(F)(F)F)c1sc2ccccc2c1C [Compound 106, N-(3-Methyl-benzo[b]thiophen-2-yl)-N-(3,3,3-trifluoro-propyl)-ethanesulfonamide] | 19 nM |  | 93%
CC#CCCN(c1sc2ccccc2c1C)S(=O)(=O)CC [Compound 107, N-(3-Methyl-benzo[b]thiophen-2-yl)-N-(pent-3-ynyl)-ethanesulfonamide] |  |  | 72%
CCS(=O)(=O)N(CCOC(C)(C)C)c1sc2ccccc2c1C [Compound 110, N-(2-tert-Butoxy-ethyl)-N-(3-methyl-benzo[b]thiophen-2-yl)-ethanesulfonamide] | 7.2 nM |  | 97%
CCS(=O)(=O)N(CC(F)F)c1sc2ccccc2c1C [Compound 111, N-(2,2-Difluoro-ethyl)-N-(3-methyl-benzo[b]thiophen-2-yl)-ethanesulfonamide] | 92 nM |  | 68%
CCS(=O)(=O)N(CCN1CCOCC1)c1sc2ccccc2c1C [Compound 113, N-(3-Methyl-benzo[b]thiophen-2-yl)-N-(2-morpholin-4-yl-ethyl)-ethanesulfonamide] |  |  | 19%
CCS(=O)(=O)N(CC1CCCN1C(=O)OC(C)(C)C)c1sc2ccccc2c1C (stereo not drawn) [Compound 114, N-(3-Methyl-benzo[b]thiophen-2-yl)-N-{[1-(carbo-tert-butoxy)pyrrolidin-2-yl]-methyl}-ethanesulfonamide] | 51.1 nM |  | 93%
CCCCN(c1sc2ccccc2c1C(C)=O)S(=O)(=O)CC [Compound 121, N-(3-Acetyl-benzo[b]thiophen-2-yl)-N-(butyl)-ethanesulfonamide] | 35 nM |  | 86%
CCS(=O)(=O)N(CC1CC1)c1sc2ccccc2c1C(C)=O [Compound 122, N-(3-Acetyl-benzo[b]thiophen-2-yl)-N-(cyclopropylmethyl)-ethanesulfonamide] |  |  | 23%
CCS(=O)(=O)N(CCOC(C)(C)C)c1sc2ccccc2c1C(C)=O [Compound 123, N-(3-Acetyl-benzo[b]thiophen-2-yl)-N-(2-tert-butoxy-ethyl)-ethanesulfonamide] |  |  | 60%
